# Several values for one entry are separate records, joined by “and”; a condition that tells them apart may be missing. Equal entries are not always repeated. Where two headings read alike, the source gives them in different places.
# Columns and labels:
# [1] = Dissolution study of fine particle dose in simulated lung fluid; assay type: physicochemical
# Procedure: The dissolution profile of A2-TFN powders was investigated using a jacketed beaker which contained 100 mL of simulated lung fluid as dissolution medium. The preparation of simulated lung fluid was according to Marques et al. (SLF3 in the article). The temperature was maintained at 37° C. and the medium was stirred at 75 rpm with a magnetic bar. As fine particle dose (FPD, aerodynamic diameter<5 μm) is considered to be the fraction of powder that can deposit in the deep lung region, the FPD of A2-TFN formulation was collected by a Fast Screening Impactor (FSI, Copley Scientific, UK) coupled with Breezhaler® as described before for dissolution study. Approximately 8.5±0.5 mg of A2-TFN powder was dispersed by FSI to separate an FPD (which contained an estimated amount of 0.5 mg of tamibarotene). The powders were placed on a glass fiber filter paper which was then transferred into the jacketed beaker. At pre-determined time intervals, 1 mL of dissolution medium was withdrawn and filtered through 0.45-μm membrane filter. Equal volume of pre-warmed fresh medium was refilled immediately. The unformulated tamibarotene powder was included as control for comparison. The concentration of tamibarotene was quantified by HPLC as described above. The dissolution study was carried out in triplicate.
# SARS-CoV-2 = assay: Plaque reduction assay for antiviral EC50, Vero E6 cells; assay type: cell-based; conditions: Severe acute respiratory syndrome coronavirus 2, Vero C1008
# Procedure: Plaque reduction assay was performed to plot the 50% antiviral effective dose (EC50). Vero E6 cells were used for SARS-CoV-2 and MDCK cells for influenza A virus. Briefly, cells were seeded at 4×10^5 cells/well in 12-well tissue culture plates on the day before carrying out the assay. After 24 h of incubation, 50 p.f.u. of SARS-CoV-2 or H1N1 virus were added to the cell monolayer with or without the addition of drug compounds and the plates were further incubated for 1 h at 37° C. in 5% CO2 before removal of unbound viral particles by aspiration of the media and washing once with DMEM. Monolayers were then overlaid with media containing 1% low melting agarose (Cambrex Corporation, New Jersey, USA) in DMEM and appropriate concentrations of individual compound, inverted and incubated as above for another 72 h. The wells were then fixed with 10% formaldehyde (BDH, Merck, Darmstadt, Germany) overnight. After removal of the agarose plugs, the monolayers were stained with 0.7% crystal violet (BDH, Merck) and the plaques counted. The percentage of plaque inhibition relative to the control (i.e., without the addition of compound) wells were determined for each drug compound concentration. The EC50 was calculated using Sigma plot (SPSS) in an Excel add-in ED50V10. The plaque reduction assay experiments were performed in triplicate and repeated twice for confirmation.
# H1N1 virus [2] = assay: Plaque reduction assay for antiviral EC50, MDCK cells; assay type: cell-based; conditions: Influenza A virus
# influenza A H1N1 virus = assay: In vivo prophylactic protection against H1N1 virus; parameters: species or system BALB/c mice; conditions: for Lung histopathology (H&E) / Viral PA protein expression in lung (immunofluorescence): 3 d.p.i., data not shown; for Viral RNA load in lung tissues compared with PBS: day 3 post-challenge, 5 mg/kg i.t., one-way ANOVA; for Survival rate compared with PBS group: log-rank test, p<0.01
# Procedure: BALB/c mice were used to investigate the in vivo activity of A2-TFN formulation against influenza A H1N1 virus. The mice were evaluated in divided into four groups (nine mice per group). Prior to virus inoculation, i.t. administration was performed under anesthesia in each group: (i) 20 μL of zanamivir solution (5 mg/mL); (ii) 50 μL of unformulated tamibarotene suspension (2 mg/mL); and (iii) 1 mg of A2-TFN powder. The dose of zanamivir or tamibarotene was 5 mg/kg per mouse. In the fourth group of mice, 50 μL of PBS was i.t. administered as negative control. At 2 h post administration, all the mice were i.n. inoculated with 20 μL of virus suspension containing 100 p.f.u. of HIN virus under anesthesia. Four mice in each group were euthanatized randomly on 3 d.p.i. and the lung tissues were harvested for viral load assay by qRT-PCR method. Animal survival, clinical symptoms and body weight were monitored for 14 days or until the humane endpoint (body weight loss more than 20%) was reached. The lung tissue histopathology of infected mice was examined by hematoxylin and eosin (H&E) and immunofluorescence staining. This experiment was conducted in two independent experiments (n=9 in each group).
# H1N1 virus [3] = assay: In vivo therapeutic effect against H1N1 virus, intranasal treatment; parameters: species or system BALB/c mice; conditions: for Viral RNA load in lung compared with PBS group: 3 d.p.i., zanamivir 2 mg/kg i.n., one-way ANOVA; for Viral RNA load in lung compared with PBS group / Survival rate: tamibarotene 0.1 mg/kg; for Survival rate: 14 d.p.i., five i.n. doses from 4 h post 10 p.f.u. H1N1, zanamivir 2 mg/kg, n=7; for Survival rate compared with PBS group: Log-rank test, p<0.01
# Procedure: To evaluate the therapeutic effect of tamibarotene formulation against H1N1 virus, BALB/c mice were i.n. inoculated with 20 μL of virus suspension containing 10 p.f.u. of H1N1 virus under anaesthesia. At 4 h post virus challenge, the first therapeutic dose was initiated and the mice were divided into four groups (11 mice per group) to receive 20 μL of each treatment via i.n. administration: (i) zanamivir solution (2 mg/mL); (ii) unformulated tamibarotene suspension (100 μg/mL); (iii) reconstituted A2-TFN solution (100 μg/mL); and (iv) PBS (as negative control). The dose of tamibarotene was 0.1 mg/kg, and the dose of zanamivir was 2 mg/kg. On day 1 and day 2 post-infection, the therapeutic doses were administered twice a day. On 3 d.p.i., four mice in each group were euthanatized randomly and the lung tissues were harvested for viral load assay by qRT-PCR method. Animal survival, clinical symptoms and body weight were monitored for 14 days or until the humane endpoint (body weight loss more than 20%) was reached. This experiment was conducted in two independent experiments (n=11 in each group).
# [4] = plasma, i.p. drug suspension, 5 mg/kg tamibarotene, n=5
# MERS-CoV = conditions: from Yuan, et al., Nature Communications 2019, 10, 120; cited from earlier work
# in vivo = conditions: BALB/c, mouse, ip, 5 mg/kg; for AUC(0-t): AUC0-8 h; for AUC(0-inf): AUC0-∞—D; for MRT last: MRT0-8 h
# [5] = Toxicity study in uninfected mice after intratracheal powder; assay type: in vivo, BALB/c mice; conditions: 1 mg powder intratracheally
# Procedure: HPBCD only powder was prepared according to the same protocol as A2-TFN but without the addition of tamibarotene and tert-butyl alcohol. One milligram of A2-TFN powder or HPBCD powder, or 50 μL of phosphate buffer saline (PBS) was intratracheally administered in healthy BALB/c mice under anesthesia.
# [6] = lung, i.p. drug suspension, 5 mg/kg tamibarotene
# [7] = plasma, i.p. drug suspension, 5 mg/kg tamibarotene
compound,measurement,setting,value
CC1(C)CCC(C)(C)c2cc(NC(=O)c3ccc(C(=O)O)cc3)ccc21 [tamibarotene],Cumulative dissolved drug after 24 h compared with A2-TFN powder,"[1]; Student's t-test, p<0.01",significantly lower
same,Drug dissolved,"[1]; within the first hour, 37° C.",approximately 20%
same,EC50,SARS-CoV-2,5800 ± 1200 nM
same,EC50,H1N1 virus [2],1680 ± 980 nM
same,Lung histopathology (H&E),influenza A H1N1 virus,Severe alveolar damage and interstitial inflammatory infiltration
same,Viral PA protein expression in lung (immunofluorescence),influenza A H1N1 virus,diminished but remained noticeable in bronchiolar epithelial cells
same,Viral RNA load in lung tissues compared with PBS,influenza A H1N1 virus,significantly lower
same,Survival rate compared with PBS group,influenza A H1N1 virus,significantly higher
same,Time by which all mice reached humane endpoint,influenza A H1N1 virus; single i.t. dose 5 mg/kg 2 h before 100 p.f.u. H1N1,< 9 d.p.i.
same,Viral RNA load in lung compared with PBS group,H1N1 virus [3],significantly lower
same,Survival rate,H1N1 virus [3],71%
same,Survival rate compared with PBS group,H1N1 virus [3],significantly higher
same,Cmax,[4],14.2 ± 0.9 µM
same,EC50,MERS-CoV,320 ± 26 nM
same,Tmax,in vivo,30 min
same,AUC(0-t),in vivo; [6],2400 ± 300 ng·h/mL
same,AUC(0-t),in vivo; [7],6000 ± 500 ng·h/mL
same,AUC(0-inf),in vivo; [6],500 ± 60 ng·h/mL
same,AUC(0-inf),in vivo; [7],1500 ± 200 ng·h/mL
same,Cmax,"in vivo; Cmax, lung, i.p. drug suspension, 5 mg/kg tamibarotene, n=5",7.4 µM and 2600 ng/mL
same,MRT last,in vivo; [6],36 ± 12 min
same,MRT last,in vivo; [7],90 ± 12 min
same,half-life,"in vivo; T1/2, lung, i.p. drug suspension, 5 mg/kg tamibarotene",30 ± 4.8 min
same,half-life,"in vivo; T1/2, plasma, i.p. drug suspension, 5 mg/kg tamibarotene",108 ± 24 min
2-hydroxypropyl-β-cyclodextrin [HPβCD],Body weight of uninfected mice,[5],recovered more rapidly than A2-TFN group
same,Toxicity in lung histopathology of uninfected mice,[5]; data not shown,No marked toxicity
CC(=O)N[C@H]1[C@H]([C@H](O)[C@H](O)CO)OC(C(=O)O)=C[C@@H]1N=C(N)N [zanamivir],Lung histopathology (H&E),influenza A H1N1 virus,alleviated
same,Viral PA protein expression in lung (immunofluorescence),influenza A H1N1 virus,diminished but remained noticeable in bronchiolar epithelial cells
same,Survival rate,"influenza A H1N1 virus; 14 d.p.i., single i.t. dose 5 mg/kg 2 h before 100 p.f.u. H1N1, n=5",60%
same,Viral RNA load in lung tissues compared with PBS,influenza A H1N1 virus,no significant difference
same,Survival rate compared with PBS group,influenza A H1N1 virus,significantly higher
same,Viral RNA load in lung compared with PBS group,H1N1 virus [3],not been significantly different
same,Survival rate,H1N1 virus [3],86%
same,Survival rate compared with PBS group,H1N1 virus [3],significantly higher
